Data published in patent EP0799174B1, “BIOCIDAL ALCOHOLS, THEIR PRODUCTION AND THEIR USE” (SCHÜLKE & MAYR GMBH, priority 1994, dated 1996).

How the values were obtained:
Format in all cases: cell-based
[1] = system: Proteus vulgaris NCTC 4635; test: MIC values, water-soluble (inhibition titre, dilution series in CSL)
[2] = system: Mycobacterium terrae ATCC 15755; test: Germ carrier experiment with standard cotton; set-up: key: E: individual colonies; M: several colonies; +: weak growth; ++: moderate growth; +++: heavy growth; ++++: very heavy growth; ∞: lawn growth; settings: Rewopal MPG 40 25.0%, aromatic alcohol 2.0 %, dem. water to 100
Description: • Rewopal MPG 40 25.0% • aromatic alcohol 2.0 % • dem. water to 100
The bacteria are elutriated with 5 ml CSL from a 24 h-old (37°C) culture onto CSA plates measuring approx. 9 cm in diameter, the suspension being diluted with CSL if necessary. The number of CFU/ml is to be determined using surface culture. It should be > 10^9/ml.
The sterilized and dried germ carriers are introduced into the bacterial suspension and left in it for 15 minutes, during which they are turned over twice.
A number (4) of contaminated, thoroughly impregnated germ carriers, corresponding to the proposed removal times - 15, 30, 60 and 120 minutes - is placed in a small dish and 10 ml of the disinfectant solution to be tested in WSH are poured over them. Air bubbles are to be removed by repeated turning of the germ carriers.
After the corresponding action times, the germ carriers are to be removed from the disinfectant solution, and after rinsing twice in each case for 1 min in 10 ml ML solution (see Appendix) to which the deactivating substances were optionally added, the germ carriers are placed onto the surface of a Löwenstein-Jensen nutrient medium with tweezers and moved backwards and forwards 3 to 4 times using light pressure. After inoculating the nutrient medium surface the small cloth is to remain lying directly above the condensed water level of the nutrient medium.
Germ carriers pre-treated in the same way, but kept in WSH for 120 minutes instead of in disinfectant solution are to be inoculated as a control. The inoculated tubes are incubated at 37°C for 3 weeks.

[3] = system: Penicillium funiculosum ATCC 36839; test: MIC values, water-soluble (inhibition titre, dilution series in CSL)
[4] = system: Candida albicans ATCC 10231; test: as above
Description: (§1) Standard formulation: • Rewopal MPG 40 25.0 g • aromatic alcohol 10 mmol • dem.* water to 100 g • lactic acid for adjusting the pH value to 7.0 q.s.
(§2) In sterile test tubes, 5 ml each of the dilutions of the disinfectant in WSH (water of standardized hardness) are mixed with 5 ml double-concentrated casein peptone soybean flour peptone solution (CSL) or CSL and deactivating substances.
(§3) To determine the bacteriostatic action on Staphylococcus aureus and Proteus mirabilis the tubes are inoculated by adding 0.1 ml of a CSL culture diluted 1:10 with CSL and incubated for 24 h at 37°C.
(§4) To test the fungistatic action, 0.1 ml of an undiluted CSL culture of Candida albicans which has been incubated at 37°C for 72 h is used in each case. Evaluation takes place after 72 h at 37°C.
(§5) The highest dilution of the preparation in CSL or CSL and deactivating substances that still suppresses growth of the test germs after […] incubation serves as the measure of the multiplication-inhibiting action (inhibition titre).
(§6) In the case of the disinhibition tests, the culture media are to be adjusted to a pH value of 7.0 ± 0.2 according to the state of the disinfectant.
(§7) Standard formulation: • aromatic alcohol 5.0 % • Brij 58 5.0 % • 1,3-butanediol to 100 • Test germs: see above • Test method: see above

[5] = system: Staphylococcus aureus ATCC 6538; test: as above
Description: as §1, §2, §3, §4, §5, §6, §7

[6] = system: Ps. aeruginosa; test: Quantitative surface test according to DGHM, alcoholic surface disinfectant; settings: additive (0.05% for single substances) in ethanol 25.0 % / 1-propanol 35.0 % formulation, germs deposited after approx. 20 minutes
Source text: Standard formulation: • ethanol (MEK denatured) 25.0 % • 1-propanol 35.0 % • perfume 0.02 % • benzotriazole 0.001 % • Marlipal 013/70 0.1% (isotridecanpolyethyleneglycol-(7)-ether = C13 oxo alcohol + 7 mol ethylene oxide) • active ingredient additive x% • dem. water to 100 Test germ: Ps. aeruginosa Test method:
Quantitative surface test according to DGHM (Deutsche Gesellschaft für Hygiene and Microbiology = German Association for Hygiene and Microbiology). In order to exclude the effectiveness of the readily volatile alcohol components (ethanol, 1-propanol), the preparations were deposited onto the surfaces and the germs were deposited after approx. 20 minutes. Test surfaces: PVC and OP tiles Data as reduction factors (log stages)

[7] = system: Aspergillus niger ATCC 6275; test: MIC values, water-soluble (inhibition titre, dilution series in CSL)
[8] = system: Germ mixture of Staphylococcus aureus, Staphylococcus epidermis, Escherichia coli, Klebsiella pneumoniae, Enterobacter gergoviae, Pseudomonas aeruginosa …; test: Preservative test: weekly loading of the sample with germ suspension; settings: aromatic alcohol 0.5% in sulfosuccinate 12.0% / betaine 3.0% formulation
Source text: Standard formulation: • sulfosuccinate 12.0% • betaine 3.0% • aromatic alcohol 0.5% • re-fatting agent • skin care additives • thickener • dem. water to 100 Test germs: Germ mixture of Staphylococcus aureus, Staphylococcus epidermis, Escherichia coli, Klebsiella pneumoniae, Enterobacter gergoviae, Pseudomonas aeruginosa, Pseudomonas fluorescens, Pseudomonas putida, Aspergillus niger, Penicillium funiculosum, Candida albicans; Total germ count 10^8-10^9/ml. Test method: weekly loading of the sample with germ suspension; smear onto CS and Sabouraud agar. See also K.-H. Diehl, P. Oltmanns, J. Ramsbotham, Seife, Öle, Fette, Wachse 118 (1992) 546.
Data expressed semi-qualitatively: • - no growth < 10^2 CFU/g (CFU = colony-forming units) • + slight growth approx. 10^3 CFU/g • ++ moderate growth approx. 10^4-10^5 CFU/g • +++ heavy growth > 10^5 CFU/g

[9] = standard formulation: Rewopal MPG 40 25.0 g, aromatic alcohol 10 mmol, dem. water to 100 g, pH 7.0
[10] = standard formulation: aromatic alcohol 5.0 %, Brij 58 5.0 %, 1,3-butanediol to 100

Row | MIC (minimum inhibiting concentration) P. vulgaris [1, 9] | MIC (minimum inhibiting concentration) P. funi. [3, 9] [μmol/100 ml test solution] | MIC (minimum inhibiting concentration) C. albicans [4, 9] [μmol/100 ml test solution] | MIC (minimum inhibiting concentration) S. aureus [5, 9] | MIC (minimum inhibiting concentration) A. niger [7, 9] [μmol/100 ml test solution] | SMILES | growth of M. terrae after action time 15' [2] | growth of M. terrae after action time 30' [2] | growth of M. terrae after action time 60' [2] | growth of M. terrae after action time 120' [2] | further results
1 | 313 μmol/100 ml test solution | 313 | 313 | 313 μmol/100 ml test solution | 313 | CC(C)(CO)Cc1ccccc1 [Alcohol 2, 2,2-dimethyl-3-phenyl-1-propanol] | +++ | ++ | + | M | reduction factors (log stages) ([6]; PVC, 30'): >6.0 log stages; reduction factors (log stages) ([6]; PVC, 60'): >5.4 log stages; reduction factors (log stages) ([6]; PVC, 240'): >6.5 log stages; reduction factors (log stages) ([6]; Tiles, 30'): 4.1 log stages; reduction factors (log stages) ([6]; Tiles, 60'): 4.9 log stages; reduction factors (log stages) ([6]; Tiles, 240'): >5.8 log stages; growth, 1st week ([8]; 1st week): - (no growth < 10^2 CFU/g); growth, 2nd week ([8]; 2nd week): - (no growth < 10^2 CFU/g); growth, 3rd week ([8]; 3rd week): - (no growth < 10^2 CFU/g); growth, 4th week ([8]; 4th week): - (no growth < 10^2 CFU/g); growth, 5th week ([8]; 5th week): - (no growth < 10^2 CFU/g)
2 | 2,500 μmol/100 ml test solution | 156 | 625 | 2,500 μmol/100 ml test solution | 156 | Cc1cccc(CC(C)(C)CO)c1 [Alcohol 3, 2,2-dimethyl-3-(3-methylphenyl) propanol] | +++ | + | + | E | MIC (minimum inhibiting concentration) P. vulgaris [1, 10]: 625 µmol/100 ml test solution; MIC (minimum inhibiting concentration) P. funi. [3, 10]: 313 µmol/100 ml test solution; MIC (minimum inhibiting concentration) C. albicans [4, 10]: 625 µmol/100 ml test solution; MIC (minimum inhibiting concentration) S. aureus [5, 10]: 625 µmol/100 ml test solution; MIC (minimum inhibiting concentration) A. niger [7, 10]: 625 µmol/100 ml test solution
